The test system of the assay is S100A4 protein. Nature of the assay: S100A4 protein expression by immunoblot. The class given is cell-based, human. Particulars: for S100A4 protein expression: 1 μM. The method, then:
For total protein extraction cells were lysed with RIPA buffer (50 mM Tris-HCl, 150 mM NaCl, 1% Nonidet P-40, supplemented with complete protease inhibitor tablets; Roche) for 30 minutes on ice. For isolation of the nuclear protein fraction, the NE-PER Nuclear and Cytoplasmic Extraction Kit (Pierce) was used according to the manufacturer's instructions. Protein concentration was quantified with Bicinchoninic Acid (BCA) Protein Assay Reagent (Pierce) according to manufacturer's instructions and lysates of equal protein concentration were separated with SDS-PAGE and transferred to Hybond C Extra nitrocellulose membrane (Amersham Biosciences). Membranes were incubated in blocking solution containing 5% nonfat dry milk and 1% bovine serum albumin (BSA) for 1 hour at room temperature. Membranes were incubated overnight at 4° C. with rabbit anti-human-S100A4 antibody (dilution, 1:1500), mouse anti-human-CTNNB1 antibody (dilution, 1:1000), mouse anti-human TUBB1 antibody (dilution, 1:1000), goat anti-human GAPDH antibody (dilution, 1:500) or mouse anti-human PCNA antibody (dilution, 1:1000) followed by incubation for 1 hour at room temperature with HRP-conjugated anti-goat (dilution, 1:10000), anti-rabbit (dilution, 1:10000), anti-mouse IgG (dilution, 1:10000) or anti-mouse IgM (dilution, 1:10000) antibody. Antibody-protein-complexes were visualized with electrochemical-luminescence (ECL) reagent (100 mM Tris-HCl, 0.025% w/v luminol, 0.011% w/v para-hydroxycoumaric acid, 10% v/v dimethylsulfoxide, 0.004% v/v H2O2, pH 8.6) and subsequent exposure to CL-XPosure™ Films (Pierce) for 1 second to 20 minutes. Immunoblotting for GAPDH and PCNA served as protein loading control. Immunoblotting for β-tubulin was used to control that nuclear extracts were free from cytoplasmatic protein. All experiments were performed at least three independent times.
(A) Determination of the cytotoxicity of niclosamide on HCT116 cells. Cells were treated with increasing concentrations of niclosamide for 24 hours and cell viability was measured. (B) Effect of increasing concentrations of niclosamide on S100A4 expression. HCT116 cells were treated with increasing concentrations of niclosamide for 24 hours. S100A4 expression was determined by quantitative reverse-transcription-polymerase chain reaction (qRT-PCR) and immunoblot. (C) Time-dependency of niclosamide effect on S100A4 expression. HCT116 cells were treated with a single dose of 1 μM niclosamide for 24 hours and S100A4 expression was analyzed by qRT-PCR and immunoblot at indicated time points. Black bar indicates the chosen treatment conditions for further experiments. (D) Effect of daily doses of niclosamide on S100A4 expression. HCT116 cells were treated daily with 1 μM niclosamide and S100A4 expression was analyzed by qRT-PCR and immunoblot. Data is given as mean±SD (n>2). Differences in treated groups were compared with the control group by two-sided one-way analysis of variances and Bonferroni post hoc multiple comparison test.
(E) Effect of niclosamide in HCT116-vector and HCT116-S100A4 cells. HCT116-vector and HCT116-S100A4 cells were treated with 1 μM niclosamide for 24 hours and S100A4 expression was analyzed by qRT-PCR and immunoblot. Data is given as mean±SD (n>2). Comparison of niclosamide vs. solvent-treated cells was analyzed with Student's t test.
(A) S100A4 expression under niclosamide treatment. Cells were treated with 1 μM niclosamide for 24 hours. S100A4 expression was analyzed with qRT-PCR and immunoblot. (B) Cell migration under niclosamide treatment. Migration rates of cells treated with 1 μM niclosamide for 24 hours were determined in a Boyden chamber assay values were normalized to solvent-treated SW620 cells. (C) Cell invasion under niclosamide treatment. Cells were seeded onto Matrigel covered transwells and treated with 1 μM niclosamide for 24 hours. Invaded cells in the lower chamber were counted and normalized to solvent-treated SW620 cells. […]
Background: Immunoblotting shows a protein as a band on a membrane.

SMILES strings stand for the structures.

Regarding `O=C(Nc1ccc([N+](=O)[O-])cc1Cl)c1cc(Cl)ccc1O` [niclosamide, 2′,5-dichloro-4′-nitrosalicylanilide], the S100A4 protein expression result was “no S100A4 protein was detected” (DLD-1 cells, 24 h (solvent and niclosamide-treated)); “reduced” (SW620, LS174T and SW480 cells, 24 h). The S100A4 protein level result is reported as “reduced in a concentration-dependent manner” (HCT116, 0.1 μM to 2.5 μM, 24 h) and “no reduction” (HCT116-S100A4, 1 μM, 24 h). The “S100A4 protein level, % of solvent-treated control cells” value (HCT116, 1 μM daily) is “approximately 50%”. Moreover, for the setting “HCT116, three days following discontinuation of niclosamide treatment”, the S100A4 protein entry is reported as “clearly reduced”. The activity at 1 µM (Homo sapiens, HCT-116, HCT116, 1 μM, single dose, 24 hours, read-out: S100A4 protein level, % of control) was less than 50%.

The record behind these values is patent publication US11331290B2, “Niclosamide for the treatment of cancer metastasis” (Max-Delbrück-Centrum für Molekulare Medizin in der …, priority 2011, dated 2022).
